Counter-ions that a name gives are not always drawn.
What was measured:
Type in all cases: cell-based
Conditions in all cases: screening for activators, at least three concentrations of each drug
Xenopus laevis VDR = biological target: T1, Xenopus laevis VDR (Xenopus laevis, UniProt O13124); test: luciferase reporter transactivation assay in HepG2-NTCP cells, GAL4/xlVDR LBD chimera with tk-UAS-Luc
T1 sequence (O13124 90-422): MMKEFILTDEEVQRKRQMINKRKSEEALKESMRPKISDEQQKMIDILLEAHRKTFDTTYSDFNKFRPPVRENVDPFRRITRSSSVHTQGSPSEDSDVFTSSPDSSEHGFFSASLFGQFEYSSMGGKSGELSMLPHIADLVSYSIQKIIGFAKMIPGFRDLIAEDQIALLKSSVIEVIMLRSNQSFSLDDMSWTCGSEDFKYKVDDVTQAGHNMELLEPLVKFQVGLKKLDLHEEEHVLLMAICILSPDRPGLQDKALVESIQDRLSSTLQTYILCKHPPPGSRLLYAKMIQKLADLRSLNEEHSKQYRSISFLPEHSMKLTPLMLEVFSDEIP

Zebrafish VDR = biological target: T2, Zebrafish VDR (Danio rerio, UniProt Q9PTN2); test: luciferase reporter transactivation assay in HepG2-NTCP cells, GAL4/zfVDR LBD chimera with tk-UAS-Luc
T2 sequence (Q9PTN2 121-453): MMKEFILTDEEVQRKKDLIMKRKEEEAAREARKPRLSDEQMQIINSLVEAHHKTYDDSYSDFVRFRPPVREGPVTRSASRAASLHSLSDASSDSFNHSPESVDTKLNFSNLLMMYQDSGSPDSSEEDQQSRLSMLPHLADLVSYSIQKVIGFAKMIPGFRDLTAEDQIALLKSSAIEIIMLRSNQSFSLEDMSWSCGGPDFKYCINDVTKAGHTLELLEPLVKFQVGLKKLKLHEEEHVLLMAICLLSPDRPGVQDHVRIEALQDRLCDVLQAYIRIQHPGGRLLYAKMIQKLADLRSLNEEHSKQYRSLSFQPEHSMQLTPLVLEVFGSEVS

Sea lamprey VDR = biological target: T3, Sea lamprey VDR (Petromyzon marinus, UniProt Q7ZZY9)
T3 sequence (Q7ZZY9 92-406): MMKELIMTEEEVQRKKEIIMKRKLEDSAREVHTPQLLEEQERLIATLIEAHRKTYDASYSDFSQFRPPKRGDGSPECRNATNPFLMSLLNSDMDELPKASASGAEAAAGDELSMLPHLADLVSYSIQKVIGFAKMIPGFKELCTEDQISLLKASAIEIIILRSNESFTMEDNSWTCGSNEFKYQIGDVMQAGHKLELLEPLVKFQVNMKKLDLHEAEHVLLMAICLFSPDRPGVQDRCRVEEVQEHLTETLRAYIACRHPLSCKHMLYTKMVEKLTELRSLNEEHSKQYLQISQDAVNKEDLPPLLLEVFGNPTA

## CC(C)(O)[C@H]1O[C@H]2CC[C@@]3(C)[C@@](O)(CC[C@H]4Cc5c([nH]c6ccccc56)[C@@]43C)C2=CC1=O [Paxilline]
Xenopus laevis VDR
  Effect on Xenopus laevis VDR: No effect
Zebrafish VDR
  Effect on zebrafish VDR: No effect
Sea lamprey VDR
  Effect on sea lamprey VDR: No effect

## CCc1ccc(CCOc2ccc(CC3SC(=O)NC3=O)cc2)nc1 (stereo not drawn) [Pioglitazone HCl]
Xenopus laevis VDR
  Effect on Xenopus laevis VDR: No effect
Zebrafish VDR
  Effect on zebrafish VDR: No effect
Sea lamprey VDR
  Effect on sea lamprey VDR: No effect

## C[C@H](O)[C@H]1CC[C@H]2[C@@H]3CC[C@@H]4C[C@H](O[C@@H]5O[C@H](C(=O)O)[C@@H](O)[C@H](O)[C@H]5O)CC[C@]4(C)[C@H]3CC[C@]12C [Pregnanediol glucuronide]
Xenopus laevis VDR
  Effect on Xenopus laevis VDR: No effect
Zebrafish VDR
  Effect on zebrafish VDR: No effect
Sea lamprey VDR
  Effect on sea lamprey VDR: No effect

## CC(=O)[C@H]1[C@H](C#N)C[C@H]2[C@@H]3CC=C4C[C@@H](O)CC[C@]4(C)[C@H]3CC[C@@]21C [Pregnenolone-16a-carbonitrile]
Xenopus laevis VDR
  Effect on Xenopus laevis VDR: No effect
Zebrafish VDR
  Effect on zebrafish VDR: No effect
Sea lamprey VDR
  Effect on sea lamprey VDR: No effect

## CC(=O)[C@H]1CC[C@H]2[C@@H]3CCC4=CC(=O)CC[C@]4(C)[C@H]3CC[C@]12C [Progesterone]
Xenopus laevis VDR
  Effect on Xenopus laevis VDR: No effect
Zebrafish VDR
  Effect on zebrafish VDR: No effect
Sea lamprey VDR
  Effect on sea lamprey VDR: No effect

## COC(=O)[C@H]1[C@H]2C[C@@H]3c4[nH]c5cc(OC)ccc5c4CCN3C[C@H]2C[C@@H](OC(=O)c2cc(OC)c(OC)c(OC)c2)[C@@H]1OC [Reserpine]
Xenopus laevis VDR
  Effect on Xenopus laevis VDR: No effect
Zebrafish VDR
  Effect on zebrafish VDR: No effect
Sea lamprey VDR
  Effect on sea lamprey VDR: No effect

## CC1=C(/C=C/C(C)=C/C=C/C(C)=C/CO)C(C)(C)CCC1 [Retinol]
Xenopus laevis VDR
  Effect on Xenopus laevis VDR: No effect
Zebrafish VDR
  Effect on zebrafish VDR: No effect
Sea lamprey VDR
  Effect on sea lamprey VDR: No effect

## CC(=O)OC/C=C(C)/C=C/C=C(C)/C=C/C1=C(C)CCCC1(C)C [Retinyl acetate]
Xenopus laevis VDR
  Effect on Xenopus laevis VDR: No effect
Zebrafish VDR
  Effect on zebrafish VDR: No effect
Sea lamprey VDR
  Effect on sea lamprey VDR: No effect

## CCOP(=O)(OCC)C(=Cc1cc(C(C)(C)C)c(O)c(C(C)(C)C)c1)P(=O)(OCC)OCC [SR12813]
Xenopus laevis VDR
  Effect on Xenopus laevis VDR: No effect
Zebrafish VDR
  Effect on zebrafish VDR: No effect
Sea lamprey VDR
  Effect on sea lamprey VDR: No effect

## O=S(=O)(c1ccccc1)N(CC(F)(F)F)c1ccc(C(O)(C(F)(F)F)C(F)(F)F)cc1 [T-0901317]
Xenopus laevis VDR
  Effect on Xenopus laevis VDR: None of these three VDRs were activated
Zebrafish VDR
  Effect on zebrafish VDR: None of these three VDRs were activated
Sea lamprey VDR
  Effect on sea lamprey VDR: None of these three VDRs were activated

## Clc1cnc(Oc2ccc(Oc3ncc(Cl)cc3Cl)cc2)c(Cl)c1 [TCPOBOP]
Xenopus laevis VDR
  Effect on Xenopus laevis VDR: No effect
Zebrafish VDR
  Effect on zebrafish VDR: No effect
Sea lamprey VDR
  Effect on sea lamprey VDR: No effect

## C/C(=C\c1ccc(C(=O)O)cc1)c1ccc2c(c1)C(C)(C)CCC2(C)C [TTNPB]
Xenopus laevis VDR
  Effect on Xenopus laevis VDR: No effect
Zebrafish VDR
  Effect on zebrafish VDR: No effect
Sea lamprey VDR
  Effect on sea lamprey VDR: No effect

## C[C@H](CCC(=O)NCCS(=O)(=O)O)[C@H]1CC[C@H]2[C@@H]3[C@H](O)C[C@@H]4C[C@H](O)CC[C@]4(C)[C@H]3CC[C@]12C [Taurochenodeoxycholic acid]
Xenopus laevis VDR
  Effect on Xenopus laevis VDR: No effect
Zebrafish VDR
  Effect on zebrafish VDR: No effect
Sea lamprey VDR
  Effect on sea lamprey VDR: No effect

## C[C@H](CCC(=O)NCCS(=O)(=O)[O-])[C@H]1CC[C@H]2[C@@H]3CC[C@@H]4C[C@H](O)CC[C@]4(C)[C@H]3C[C@H](O)[C@]12C.[Na+] [Taurodeoxycholic acid sodium salt]
Xenopus laevis VDR
  Effect on Xenopus laevis VDR: No effect
Zebrafish VDR
  Effect on zebrafish VDR: No effect
Sea lamprey VDR
  Effect on sea lamprey VDR: No effect

## C[C@H](CCC(=O)NCCS(=O)(=O)[O-])[C@H]1CC[C@H]2[C@@H]3C[C@H](O)[C@@H]4C[C@H](O)CC[C@]4(C)[C@H]3CC[C@]12C.[Na+] [Taurohyodeoxycholic acid]
Xenopus laevis VDR
  Effect on Xenopus laevis VDR: No effect
Zebrafish VDR
  Effect on zebrafish VDR: No effect
Sea lamprey VDR
  Effect on sea lamprey VDR: No effect

## C[C@H](CCC(=O)NCCS(=O)(=O)O)[C@H]1CC[C@H]2[C@@H]3CC[C@@H]4C[C@H](OS(=O)(=O)O)CC[C@]4(C)[C@H]3CC[C@]12C [Taurolithocholic acid 3-sulfate]
Xenopus laevis VDR
  Effect on Xenopus laevis VDR: No effect
Zebrafish VDR
  Effect on zebrafish VDR: No effect
Sea lamprey VDR
  Effect on sea lamprey VDR: No effect

## CCCCCCCCCCCCCCSCC(=O)O [Tetradecylthioacetic acid]
Xenopus laevis VDR
  Effect on Xenopus laevis VDR: No effect
Zebrafish VDR
  Effect on zebrafish VDR: No effect
Sea lamprey VDR
  Effect on sea lamprey VDR: No effect

## C[C@]12CC[C@@H](O)C[C@H]1CC[C@@H]1[C@@H]2[C@@H](O)C[C@@]2(C)[C@H]1CC[C@]2(O)C(=O)CO [Tetrahydrocortisol]
Xenopus laevis VDR
  Effect on Xenopus laevis VDR: No effect
Zebrafish VDR
  Effect on zebrafish VDR: No effect
Sea lamprey VDR
  Effect on sea lamprey VDR: No effect

## C[C@]12CC[C@@H](O)C[C@H]1CC[C@@H]1[C@@H]2C(=O)C[C@@]2(C)[C@H]1CC[C@]2(O)C(=O)CO [Tetrahydrocortisone]
Xenopus laevis VDR
  Effect on Xenopus laevis VDR: No effect
Zebrafish VDR
  Effect on zebrafish VDR: No effect
Sea lamprey VDR
  Effect on sea lamprey VDR: No effect

## Cc1c(C)c2c(c(C)c1O)CCC(C)(COc1ccc(CC3SC(=O)NC3=O)cc1)O2 (stereo not drawn) [Troglitazone]
Xenopus laevis VDR
  Effect on Xenopus laevis VDR: No effect
Zebrafish VDR
  Effect on zebrafish VDR: No effect
Sea lamprey VDR
  Effect on sea lamprey VDR: No effect

## CC(C)=CCC/C(C)=C/CC/C(C)=C/CC/C(C)=C/CC1=C(C)C(=O)c2ccccc2C1=O [Vitamin K2]
Xenopus laevis VDR
  Effect on Xenopus laevis VDR: No effect
Zebrafish VDR
  Effect on zebrafish VDR: No effect
Sea lamprey VDR
  Effect on sea lamprey VDR: No effect

## CC1=CC(=O)c2ccccc2C1=O [Vitamin K3]
Xenopus laevis VDR
  Effect on Xenopus laevis VDR: No effect
Zebrafish VDR
  Effect on zebrafish VDR: No effect
Sea lamprey VDR
  Effect on sea lamprey VDR: No effect

## Cc1cccc(Nc2cc(Cl)nc(SCC(=O)O)n2)c1C [WY-14643]
Xenopus laevis VDR
  Effect on Xenopus laevis VDR: No effect
Zebrafish VDR
  Effect on zebrafish VDR: No effect
Sea lamprey VDR
  Effect on sea lamprey VDR: No effect

## C/C=C1\C(=O)C[C@H]2[C@@H]3CCC4=CC(=O)CC[C@]4(C)[C@H]3CC[C@]12C [Z-Guggulsterone]
Xenopus laevis VDR
  Effect on Xenopus laevis VDR: No effect
Zebrafish VDR
  Effect on zebrafish VDR: No effect
Sea lamprey VDR
  Effect on sea lamprey VDR: No effect

## C[C@H](CCC(=O)O)[C@H]1CC[C@H]2[C@@H]3[C@H](O)[C@@H](O)[C@@H]4C[C@H](O)CC[C@]4(C)[C@H]3CC[C@]12C [a-Muricholic acid]
Xenopus laevis VDR
  Effect on Xenopus laevis VDR: No effect
Zebrafish VDR
  Effect on zebrafish VDR: No effect
Sea lamprey VDR
  Effect on sea lamprey VDR: No effect

## C[C@H](CCC(=O)O)[C@H]1CC[C@H]2[C@@H]3[C@@H](O)[C@@H](O)[C@@H]4C[C@H](O)CC[C@]4(C)[C@H]3CC[C@]12C [b-Muricholic acid]
Xenopus laevis VDR
  Effect on Xenopus laevis VDR: No effect
Zebrafish VDR
  Effect on zebrafish VDR: No effect
Sea lamprey VDR
  Effect on sea lamprey VDR: No effect

## COC(=O)/C=C/c1cccc(N(Cc2ccc(-c3ccc(N(C)C)cc3)cc2)C(=O)C2CCCCC2)c1 [fexaramine]
Xenopus laevis VDR
  Effect on Xenopus laevis VDR: None of these three VDRs were activated
Zebrafish VDR
  Effect on zebrafish VDR: None of these three VDRs were activated
Sea lamprey VDR
  Effect on sea lamprey VDR: None of these three VDRs were activated

## CCCOC(=O)c1ccc(O)cc1 [n-Propyl 4-hydroxybenzoate]
Xenopus laevis VDR
  Effect on Xenopus laevis VDR: No effect
Zebrafish VDR
  Effect on zebrafish VDR: No effect
Sea lamprey VDR
  Effect on sea lamprey VDR: No effect

From article PMC2263054, “Functional evolution of the vitamin D and pregnane X receptors” (BMC Evolutionary Biology, 2007)
